One test concerns IL-2. Put plainly: T Cell stimulation (IL-2) in Jurkat cells with anti-CD3 and anti-CD28 co-stimulation. Type of test: cell-based. Particulars: Homo sapiens, supernatant after 6 hours. How it is done: Compounds of formula (I) were tested for their T Cell stimulation (IL-2) in Jurkat cells with anti-CD3 and anti-CD28 co-stimulation. […] All compounds to be tested were dissolved in dimethyl sulfoxide. Cytotoxicity was evaluated with parallel Alamar Blue plates. Jurkat cells were seeded at 2×10^5 cells per well in 190 μL growth media in a 96-well plate. Cells were cultured in RPMI 1640 medium, 10% fetal bovine serum, and L-Glutamine with incubation at 37° C. with 5% carbon dioxide. After 1 hour of incubation the cells were stimulated with immobilized anti-CD3 (0.4 μg/well), anti-CD28 soluble (2 μg/mL). After 6 hours the sample supernatants were harvested and stored at −80° C. 50 μL samples of supernatant were tested for IL-2 using a Luminex® 1-plex assay.

Test [1] concerns Mitochondria prepared from rat livers. The experiment in a line: Mitochondrial permeability transition (Ca2+-induced mitochondrial swelling). Type of test: biochemical. Particulars: rat liver mitochondria, swelling induced by 150 micro molar Ca2+, compounds added 5 minutes before; read-out: MPT EC50 (inhibition of mitochondrial swelling). How it is done: Mitochondrial permeability transition (MPT) was determined by measuring swelling of the mitochondria induced by Ca^2+. The procedure was adapted from the method described by Blattner et al., 2001, Analytical Biochem., 295: 220. Mitochondria were prepared from rat livers, which had been perfused with phosphate-buffered saline (PBS) to remove blood, using standard methods that utilized gentle homogenization in sucrose based buffer and then differential centrifugation to first remove cellular debris and then to pellet the mitochondria. Swelling was induced by 150 micro molar Ca^2+ (added from a concentrated solution of Calcium chloride) and was monitored by measuring the scattering at 535-540 nm. Representative compounds were added 5 minutes before swelling was induced. EC50 were determined by comparing swelling with and without the compounds of formula (I).

The term EC50 denotes the concentration giving half of the maximal effect.

Numbered stars: 1 amine (or outer) side, 2 acyl side, 3 side chain; on linkers, the order of the positions; unused ones are H or OH. Square brackets hold non-standard residues; d marks the D form. Peptide text beside a SMILES is read from it. ξ: configuration not given here. X1 = CC(=O)OC(C)(C)C[C@@H](C(=O)[*:2])N(C)[*:1]; ξNMeBmt = C/C=C/C[C@@H](C)[C@@H](O)C(NC)C(=O)O; dNMeL = CN[C@H](CC(C)C)C(=O)O; dNMeV = CN[C@@H](C(=O)O)C(C)C; dAbu = CC[C@@H](N)C(=O)O; Sar = CNCC(=O)O Where only a bound is given, the exact number is not on record here.

As to `C/C=C/C[C@@H](C)[C@@H](O)C1C(=O)N[C@H](CC)C(=O)N(C)CC(=O)N(C)[C@@H](CC(C)(C)OC(C)=O)C(=O)N[C@H](C(C)C)C(=O)N(C)[C@H](CC(C)C)C(=O)N[C@H](C)C(=O)N[C@@H](C)C(=O)N(C)[C@H](CC(C)C)C(=O)N(C)[C@H](CC(C)C)C(=O)N(C)[C@H](C(C)C)C(=O)N1C` (some centres unmarked) [Compound E, [4′-acetoxy-N-methylleucine]^4cyclosporine A] (cyclo(A[dNMeL][dNMeL][dNMeV][ξNMeBmt][dAbu][Sar][X1][dV][dNMeL][dA])), in the test on IL-2, the EC50 was below 0.01 µM.
Regarding “[4′-hydroxy-N-methylleucine]^4cyclosporine A S-benzyl-4′-thiocarbonate [Compound X]”, in test [1], the EC50 is above 30 µM.

Values taken from patent publication US8536114B2, “Macrocycles” (Scynexis, Inc., priority 2008, dated 2013).
